{"source": "ChEMBL document CHEMBL1201861", "about": "“Genomics of Drug Sensitity in Cancer screening data, Wellcome Trust Sanger Institute”", "test_in_all_cases": "cells", "key": {"[1]": {"tested_on": "BB65-RCC", "format": "functional, cell-based, Homo sapiens", "conditions": "bb65-rcc", "description": "SANGER: Inhibition of human BB65-RCC cell growth in a cell viability assay."}, "[2]": {"tested_on": "NEC8", "format": "functional, cell-based, Homo sapiens", "conditions": "nec8", "description": "SANGER: Inhibition of human NEC8 cell growth in a cell viability assay."}, "[3]": {"tested_on": "CW-2", "format": "functional, cell-based, Homo sapiens", "conditions": "cw-2", "description": "SANGER: Inhibition of human CW-2 cell growth in a cell viability assay."}, "[4]": {"tested_on": "SW684", "format": "functional, cell-based, Homo sapiens", "conditions": "sw684", "description": "SANGER: Inhibition of human SW684 cell growth in a cell viability assay."}, "[5]": {"tested_on": "MV4-11", "format": "functional, cell-based, Homo sapiens, MV-4-11", "conditions": "mv-4-11", "description": "SANGER: Inhibition of human MV-4-11 cell growth in a cell viability assay."}, "[6]": {"tested_on": "ES6", "format": "functional, cell-based, Homo sapiens", "conditions": "es6", "description": "SANGER: Inhibition of human ES6 cell growth in a cell viability assay."}, "[7]": {"tested_on": "MZ1-PC", "format": "functional, cell-based, Homo sapiens", "conditions": "mz1-pc", "description": "SANGER: Inhibition of human MZ1-PC cell growth in a cell viability assay."}, "[8]": {"tested_on": "no-10", "format": "functional, cell-based, Homo sapiens", "description": "SANGER: Inhibition of human no-10 cell growth in a cell viability assay."}, "[9]": {"tested_on": "KM12", "format": "functional, cell-based, Homo sapiens", "conditions": "km12", "description": "SANGER: Inhibition of human KM12 cell growth in a cell viability assay."}, "[10]": {"tested_on": "8-MG-BA", "format": "functional, cell-based, Homo sapiens", "conditions": "8-mg-ba", "description": "SANGER: Inhibition of human 8-MG-BA cell growth in a cell viability assay."}, "[11]": {"tested_on": "IST-MEL1", "format": "functional, cell-based, Homo sapiens", "conditions": "ist-mel1", "description": "SANGER: Inhibition of human IST-MEL1 cell growth in a cell viability assay."}, "[12]": {"tested_on": "DB", "format": "functional, cell-based, Homo sapiens", "conditions": "db", "description": "SANGER: Inhibition of human DB cell growth in a cell viability assay."}, "[13]": {"tested_on": "RKO", "format": "functional, cell-based, Homo sapiens", "conditions": "rko", "description": "SANGER: Inhibition of human RKO cell growth in a cell viability assay."}, "[14]": {"tested_on": "NOMO-1", "format": "functional, cell-based, Homo sapiens", "conditions": "nomo-1", "description": "SANGER: Inhibition of human NOMO-1 cell growth in a cell viability assay."}, "[15]": {"tested_on": "EKVX", "format": "functional, cell-based, Homo sapiens", "conditions": "ekvx", "description": "SANGER: Inhibition of human EKVX cell growth in a cell viability assay."}, "[16]": {"tested_on": "SW982", "format": "functional, cell-based, Homo sapiens", "conditions": "sw982", "description": "SANGER: Inhibition of human SW982 cell growth in a cell viability assay."}, "[17]": {"tested_on": "CTV-1", "format": "functional, cell-based, Homo sapiens", "conditions": "ctv-1", "description": "SANGER: Inhibition of human CTV-1 cell growth in a cell viability assay."}, "[18]": {"tested_on": "KY821", "format": "functional, cell-based, Homo sapiens", "conditions": "ky821", "description": "SANGER: Inhibition of human KY821 cell growth in a cell viability assay."}, "[19]": {"tested_on": "TE-12", "format": "functional, cell-based, Homo sapiens", "conditions": "te-12", "description": "SANGER: Inhibition of human TE-12 cell growth in a cell viability assay."}, "[20]": {"tested_on": "COLO-668", "format": "functional, cell-based, Homo sapiens", "conditions": "colo-668", "description": "SANGER: Inhibition of human COLO-668 cell growth in a cell viability assay."}, "[21]": {"tested_on": "DOHH-2", "format": "functional, cell-based, Homo sapiens", "conditions": "dohh-2", "description": "SANGER: Inhibition of human DOHH-2 cell growth in a cell viability assay."}, "[22]": {"tested_on": "NB5", "format": "functional, cell-based, Homo sapiens", "conditions": "nb5", "description": "SANGER: Inhibition of human NB5 cell growth in a cell viability assay."}, "[23]": {"tested_on": "MHH-PREB-1", "format": "functional, cell-based, Homo sapiens", "conditions": "mhh-preb-1", "description": "SANGER: Inhibition of human MHH-PREB-1 cell growth in a cell viability assay."}, "[24]": {"tested_on": "MS-1", "format": "functional, cell-based, Homo sapiens", "conditions": "ms-1", "description": "SANGER: Inhibition of human MS-1 cell growth in a cell viability assay."}, "[25]": {"tested_on": "BT-474", "format": "functional, cell-based, Homo sapiens", "conditions": "bt-474", "description": "SANGER: Inhibition of human BT-474 cell growth in a cell viability assay."}, "[26]": {"tested_on": "OMC-1", "format": "functional, cell-based, Homo sapiens", "conditions": "omc-1", "description": "SANGER: Inhibition of human OMC-1 cell growth in a cell viability assay."}, "[27]": {"tested_on": "EW-18", "format": "functional, cell-based, Homo sapiens", "conditions": "ew-18", "description": "SANGER: Inhibition of human EW-18 cell growth in a cell viability assay."}, "[28]": {"tested_on": "KGN", "format": "functional, cell-based, Homo sapiens", "conditions": "kgn", "description": "SANGER: Inhibition of human KGN cell growth in a cell viability assay."}, "[29]": {"tested_on": "NKM-1", "format": "functional, cell-based, Homo sapiens", "conditions": "nkm-1", "description": "SANGER: Inhibition of human NKM-1 cell growth in a cell viability assay."}, "[30]": {"tested_on": "TGBC24TKB", "format": "functional, cell-based, Homo sapiens", "conditions": "tgbc24tkb", "description": "SANGER: Inhibition of human TGBC24TKB cell growth in a cell viability assay."}, "[31]": {"tested_on": "LB2241-RCC", "format": "functional, cell-based, Homo sapiens", "conditions": "lb2241-rcc", "description": "SANGER: Inhibition of human LB2241-RCC cell growth in a cell viability assay."}, "[32]": {"tested_on": "MOLT-4", "format": "functional, cell-based, Homo sapiens", "conditions": "molt-4", "description": "SANGER: Inhibition of human MOLT-4 cell growth in a cell viability assay."}, "[33]": {"tested_on": "ETK-1", "format": "functional, cell-based, Homo sapiens", "conditions": "etk-1", "description": "SANGER: Inhibition of human ETK-1 cell growth in a cell viability assay."}, "[34]": {"tested_on": "NB6", "format": "functional, cell-based, Homo sapiens", "conditions": "nb6", "description": "SANGER: Inhibition of human NB6 cell growth in a cell viability assay."}, "[35]": {"tested_on": "Lu-65", "format": "functional, cell-based, Homo sapiens", "conditions": "lu-65", "description": "SANGER: Inhibition of human LU-65 cell growth in a cell viability assay."}, "[36]": {"tested_on": "NCI-H1155", "format": "functional, cell-based, Homo sapiens", "conditions": "nci-h1155", "description": "SANGER: Inhibition of human NCI-H1155 cell growth in a cell viability assay."}, "[37]": {"tested_on": "KNS-42", "format": "functional, cell-based, Homo sapiens", "conditions": "kns-42", "description": "SANGER: Inhibition of human KNS-42 cell growth in a cell viability assay."}, "[38]": {"tested_on": "RXF 393", "format": "functional, cell-based, Homo sapiens", "conditions": "rxf 393", "description": "SANGER: Inhibition of human RXF393 cell growth in a cell viability assay."}, "[39]": {"tested_on": "MN-60", "format": "functional, cell-based, Homo sapiens", "conditions": "mn-60", "description": "SANGER: Inhibition of human MN-60 cell growth in a cell viability assay."}, "[40]": {"tested_on": "SK-N-FI", "format": "functional, cell-based, Homo sapiens", "conditions": "sk-n-fi", "description": "SANGER: Inhibition of human SK-N-FI cell growth in a cell viability assay."}, "[41]": {"tested_on": "GCIY", "format": "functional, cell-based, Homo sapiens", "conditions": "gciy", "description": "SANGER: Inhibition of human GCIY cell growth in a cell viability assay."}, "[42]": {"tested_on": "JVM-3", "format": "functional, cell-based, Homo sapiens", "conditions": "jvm-3", "description": "SANGER: Inhibition of human JVM-3 cell growth in a cell viability assay."}, "[43]": {"tested_on": "CP66-MEL", "format": "functional, cell-based, Homo sapiens", "conditions": "cp66-mel", "description": "SANGER: Inhibition of human CP66-MEL cell growth in a cell viability assay."}, "[44]": {"tested_on": "SF-268", "format": "functional, cell-based, Homo sapiens", "conditions": "sf-268", "description": "SANGER: Inhibition of human SF268 cell growth in a cell viability assay."}, "[45]": {"tested_on": "NCI-H1092", "format": "functional, cell-based, Homo sapiens", "conditions": "nci-h1092", "description": "SANGER: Inhibition of human NCI-H1092 cell growth in a cell viability assay."}, "[46]": {"tested_on": "MEG-01", "format": "functional, cell-based, Homo sapiens", "conditions": "meg-01", "description": "SANGER: Inhibition of human MEG-01 cell growth in a cell viability assay."}, "[47]": {"tested_on": "HuTu80", "format": "functional, cell-based, Homo sapiens, HUTU-80", "conditions": "hutu-80", "description": "SANGER: Inhibition of human HUTU-80 cell growth in a cell viability assay."}, "[48]": {"tested_on": "HT-144", "format": "functional, cell-based, Homo sapiens", "conditions": "ht-144", "description": "SANGER: Inhibition of human HT-144 cell growth in a cell viability assay."}, "[49]": {"tested_on": "EOL1", "format": "functional, cell-based, Homo sapiens", "conditions": "eol1", "description": "SANGER: Inhibition of human EoL-1-cell cell growth in a cell viability assay."}}}
{"sequence": "CISPLATIN", "values": [{"measurement": "IC50", "setting": "[1]", "value": 2.82, "unit": "µM"}, {"measurement": "IC50", "setting": "[2]", "value": 2.52, "unit": "µM"}, {"measurement": "IC50", "setting": "[3]", "value": 24.5, "unit": "µM"}, {"measurement": "IC50", "setting": "[4]", "value": 590, "unit": "µM"}, {"measurement": "IC50", "setting": "[5]", "value": 3.46, "unit": "µM"}, {"measurement": "IC50", "setting": "[6]", "value": 21.3, "unit": "µM"}, {"measurement": "IC50", "setting": "[7]", "value": 29.9, "unit": "µM"}, {"measurement": "IC50", "setting": "[8]", "value": 77.8, "unit": "µM"}, {"measurement": "IC50", "setting": "[9]", "value": 114, "unit": "µM"}, {"measurement": "IC50", "setting": "[10]", "value": 5.38, "unit": "µM"}, {"measurement": "IC50", "setting": "[11]", "value": 9.38, "unit": "µM"}, {"measurement": "IC50", "setting": "[12]", "value": 2.14, "unit": "µM"}, {"measurement": "IC50", "setting": "[13]", "value": 66.8, "unit": "µM"}, {"measurement": "IC50", "setting": "[14]", "value": 123, "unit": "µM"}, {"measurement": "IC50", "setting": "[15]", "value": 485, "unit": "µM"}, {"measurement": "IC50", "setting": "[16]", "value": 23.1, "unit": "µM"}, {"measurement": "IC50", "setting": "[17]", "value": 34, "unit": "µM"}, {"measurement": "IC50", "setting": "[18]", "value": 80, "unit": "µM"}, {"measurement": "IC50", "setting": "[19]", "value": 42.6, "unit": "µM"}, {"measurement": "IC50", "setting": "[20]", "value": 103, "unit": "µM"}, {"measurement": "IC50", "setting": "[21]", "value": 4.23, "unit": "µM"}, {"measurement": "IC50", "setting": "[22]", "value": 5.48, "unit": "µM"}, {"measurement": "IC50", "setting": "[23]", "value": 23.8, "unit": "µM"}, {"measurement": "IC50", "setting": "[24]", "value": 14.1, "unit": "µM"}, {"measurement": "IC50", "setting": "[25]", "value": 1100, "unit": "µM"}, {"measurement": "IC50", "setting": "[26]", "value": 12.6, "unit": "µM"}, {"measurement": "IC50", "setting": "[27]", "value": 35.2, "unit": "µM"}, {"measurement": "IC50", "setting": "[28]", "value": 17.6, "unit": "µM"}, {"measurement": "IC50", "setting": "[29]", "value": 6.04, "unit": "µM"}, {"measurement": "IC50", "setting": "[30]", "value": 39.8, "unit": "µM"}, {"measurement": "IC50", "setting": "[31]", "value": 11.3, "unit": "µM"}, {"measurement": "IC50", "setting": "[32]", "value": 88.8, "unit": "µM"}, {"measurement": "IC50", "setting": "[33]", "value": 49.8, "unit": "µM"}, {"measurement": "IC50", "setting": "[34]", "value": 318, "unit": "µM"}, {"measurement": "IC50", "setting": "[35]", "value": 559, "unit": "µM"}, {"measurement": "IC50", "setting": "[36]", "value": 22.7, "unit": "µM"}, {"measurement": "IC50", "setting": "[37]", "value": 20.5, "unit": "µM"}, {"measurement": "IC50", "setting": "[38]", "value": 7.86, "unit": "µM"}, {"measurement": "IC50", "setting": "[39]", "value": 58.4, "unit": "µM"}, {"measurement": "IC50", "setting": "[40]", "value": 313, "unit": "µM"}, {"measurement": "IC50", "setting": "[41]", "value": 18.5, "unit": "µM"}, {"measurement": "IC50", "setting": "[42]", "value": 39.7, "unit": "µM"}, {"measurement": "IC50", "setting": "[43]", "value": 32, "unit": "µM"}, {"measurement": "IC50", "setting": "[44]", "value": 5.12, "unit": "µM"}, {"measurement": "IC50", "setting": "[45]", "value": 15.4, "unit": "µM"}, {"measurement": "IC50", "setting": "[46]", "value": 21.7, "unit": "µM"}, {"measurement": "IC50", "setting": "[47]", "value": 467, "unit": "µM"}, {"measurement": "IC50", "setting": "[48]", "value": 3.58, "unit": "µM"}, {"measurement": "IC50", "setting": "[49]", "value": 38, "unit": "µM"}]}
